Target: T1, NOV2 (Novosphingobium aromaticivorans, UniProt Q2G4H8)
T1 sequence (Q2G4H8 1-497): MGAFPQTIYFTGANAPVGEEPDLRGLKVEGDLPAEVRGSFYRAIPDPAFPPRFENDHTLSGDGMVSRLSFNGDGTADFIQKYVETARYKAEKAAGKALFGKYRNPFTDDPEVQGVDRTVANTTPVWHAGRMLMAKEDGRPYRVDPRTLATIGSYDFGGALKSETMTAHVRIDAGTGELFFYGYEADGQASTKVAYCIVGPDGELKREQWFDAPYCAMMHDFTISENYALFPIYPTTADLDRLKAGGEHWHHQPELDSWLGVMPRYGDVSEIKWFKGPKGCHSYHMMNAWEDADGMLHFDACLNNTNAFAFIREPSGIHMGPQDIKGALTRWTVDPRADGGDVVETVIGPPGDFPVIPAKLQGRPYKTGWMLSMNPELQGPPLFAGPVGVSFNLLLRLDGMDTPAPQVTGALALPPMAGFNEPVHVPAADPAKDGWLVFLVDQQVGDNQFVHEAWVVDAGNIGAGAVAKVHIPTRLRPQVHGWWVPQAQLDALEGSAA
Assay: EPR of Fe-NO adduct and […] Mössbauer
Type: binding
Details: anaerobic, NO present for EPR

Row | Structure (SMILES) | EPR of Fe-NO adduct and 57Fe Mössbauer (4-10 equiv substrate, pH 8.5 or 7.5) | EPR of Fe-NO adduct and 57Fe Mössbauer (4 equiv substrate, pH 8.5)
1 | Oc1cc(O)cc(/C=C/c2ccc(O)c(O)c2)c1 [piceatannol] | nearly all active sites had substrate bound | 
2 | Oc1ccc(/C=C/c2cc(O)cc(O)c2)cc1 [resveratrol] |  | The resveratrol ES+NO of NOV2 showed EPR spectra (Figure 5D) similar to those with piceatannol

— article PMC5541372 (Biochemistry, 2017)
